Results published in patent US10829484B2, “Compounds and methods for kinase modulation, and indications therefor” (Plexxikon Inc., priority 2015, dated 2020).

molecular target: T1, BaF3-FLT3-ITD-F691L (Homo sapiens, UniProt P36888, INS600HVDFREYEYD/F691L, cells depend on it); experiment: CTB viability assay CS0047, BaF3-FLT3-ITD-F691L; type: cell-based, murine; conditions: BaF3-FLT3-ITD-F691L cells, CellTiter Blue viability, 72 hours; read-out: Cell Assay: CS0047:BaF3-FLT3-ITD-F691L CTB:IC50
T1 sequence (P36888 with tags, fused parts or gaps INS600HVDFREYEYD/F691L): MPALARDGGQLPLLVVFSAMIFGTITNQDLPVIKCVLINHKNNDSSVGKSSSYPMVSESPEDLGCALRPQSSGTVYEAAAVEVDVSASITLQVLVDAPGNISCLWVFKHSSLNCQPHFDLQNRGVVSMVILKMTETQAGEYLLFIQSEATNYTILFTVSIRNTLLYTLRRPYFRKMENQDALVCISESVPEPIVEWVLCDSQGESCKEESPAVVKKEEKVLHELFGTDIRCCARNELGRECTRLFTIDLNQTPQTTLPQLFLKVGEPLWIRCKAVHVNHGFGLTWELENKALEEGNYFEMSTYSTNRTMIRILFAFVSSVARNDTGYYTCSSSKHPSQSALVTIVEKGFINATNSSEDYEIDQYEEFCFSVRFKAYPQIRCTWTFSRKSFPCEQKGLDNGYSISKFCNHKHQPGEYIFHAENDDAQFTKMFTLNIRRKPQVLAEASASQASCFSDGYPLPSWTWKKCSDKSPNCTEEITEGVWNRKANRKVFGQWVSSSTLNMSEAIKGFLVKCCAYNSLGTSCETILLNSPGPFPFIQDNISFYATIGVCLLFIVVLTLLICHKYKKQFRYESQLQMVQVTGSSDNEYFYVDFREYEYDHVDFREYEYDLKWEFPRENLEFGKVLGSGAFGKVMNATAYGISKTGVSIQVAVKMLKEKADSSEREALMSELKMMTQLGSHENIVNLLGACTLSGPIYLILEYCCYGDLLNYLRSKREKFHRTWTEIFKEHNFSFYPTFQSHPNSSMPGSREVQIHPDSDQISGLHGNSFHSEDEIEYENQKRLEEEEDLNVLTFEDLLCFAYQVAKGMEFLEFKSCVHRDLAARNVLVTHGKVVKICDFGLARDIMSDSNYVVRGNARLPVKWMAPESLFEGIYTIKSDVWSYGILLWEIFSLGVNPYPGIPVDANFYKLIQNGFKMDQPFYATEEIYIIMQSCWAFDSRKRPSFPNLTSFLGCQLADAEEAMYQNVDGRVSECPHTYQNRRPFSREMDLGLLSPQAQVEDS
Text: Gene constructs containing the human FLT3 sequences FLT3-ITD, FLT3-ITD-F691L, FLT3-ITD-D835V and FLT3-D835V were synthesized by reverse translation of the human protein sequences, with codons optimized for mammalian expression. Sequence of the internal tandem duplication (ITD) was based on the MV4-11 ITD sequence. Synthetic DNA constructs were cloned into the pMSCV puro retroviral vector (Clontech) and transfected into the EcoPack2-293 packaging cell line (Clontech) to generate retroviruses that contain the different FLT3 constructs. Viruses were transduced into the IL-3-dependent, murine […] cell line, Ba/F3, and selected for puromycin resistance and IL-3 independence. All cell lines were cloned by limiting dilution and clones were used for all subsequent cell assays. Overexpression of the FLT3 mutants in the Ba/F3 cells results in constitutive phosphorylation of the exogenous FLT3 protein, which is required for IL-3 independence.
Cell lines were serum starved overnight in media containing 0.5% FBS, plated at 15,000 cells/well in 96-well white-walled tissue culture plates, and 3-fold serial dilutions of test compounds of Formula I were added for 72 hours at 37° C. CellTiter Blue (CTB, Promega) was added and incubated for an additional 3 hours at 37° C. Fluorescence was read at 560 nm excitation, 590 nm emission. Wells with CTB+media only were used for background subtraction, and the fluorescence of compound-treated cells was normalized to the fluorescence of DMSO-treated cells. IC50s were determined using Igor Pro software. All compounds are assayed in duplicate cell plates.

Row | SMILES | GI50 [nM]
1 | Cc1nn(C)c(C)c1Nc1ncc(-c2ccc(CC(=O)Nc3cc(C4(C(F)(F)F)CC4)on3)c(F)c2)cn1 [P-029, 2-[2-fluoro-4-[2-[(l,3,5-trimethylpyrazol-4-yl)amino]pyrimidin-5-yl]phenyl]-N-[5-[1-(trifluoromethyl)cyclopropyl]isoxazol-3-yl]acetamide] | 10 to 50
2 | O=C(O)Cn1cc(Nc2ncc(-c3ccc(CC(=O)Nc4cc(C5(C(F)(F)F)CC5)on4)c(F)c3)cn2)cn1 [P-078, 2-[4-[[5-[3-fluoro-4-[2-oxo-2-[[5-[1-(trifluoromethyl)cyclopropyl]isoxazol-3-yl]amino]ethyl]phenyl]pyrimidin-2-yl]amino]pyrazol-1-yl]acetic acid] | 10 to 50

same assay, conditions: Table 3; CellTiter Blue viability, 72 hours; read-out: Cell Assay: CS0047: BaF3-FLT3-ITD-F691L CTB: IC50

Row | SMILES | GI50 [nM]
3 | Cn1cc(Nc2ncc(-c3ccc(CC(=O)Nc4cc(C5(C(F)(F)F)CC5)on4)c(F)c3)cn2)cn1 | 0.189
4 | O=C(Cc1ccc(-c2cnc(Nc3ccccc3)nc2)cc1F)Nc1cc(C2(C(F)(F)F)CC2)on1 | 0.728

same assay, conditions: Table 4, compounds from WO 2011/022473; CellTiter Blue viability, 72 hours; read-out: Cell Assay: CS0047: BaF3-FLT3-ITD-F691L CTB: IC50

Row | SMILES | GI50 [nM]
5 | CC(C)(c1cc(NC(=O)Cc2ccc(-c3ccc(NCCN4CCOCC4)nc3)cc2)no1)C(F)(F)F [reference compound] | 73.9
6 | CC(C)(C)c1cc(NC(=O)Nc2ccc(-c3cnc(NC4CCOCC4)nc3)cn2)no1 [reference compound] | 110
7 | CCNc1ccc(-c2ccc(CC(=O)Nc3cc(C(C)(C)C)on3)cc2)cn1 [reference compound] | 45.4
8 | CC(C)(C)c1cc(NC(=O)Nc2ccc(-c3cnc(NC4CC4)nc3)cn2)no1 [reference compound] | 77.8
9 | CNc1ccc(-c2ccc(CC(=O)Nc3cc(C(C)(C)C)on3)cc2)cn1 [reference compound] | 43.2
